Source: the supplement of paper PMC10307832

Legend:
Assay in all cases: relative viability (nuclei count vs DMSO), 5 days (fraction); higher = more cells survive
Dactolisib + Lapatinib = compound: Cn1c(=O)n(-c2ccc(C(C)(C)C#N)cc2)c2c3cc(-c4cnc5ccccc5c4)ccc3ncc21 [Dactolisib] + CS(=O)(=O)CCNCc1ccc(-c2ccc3ncnc(Nc4ccc(OCc5cccc(F)c5)c(Cl)c4)c3c2)o1 [Lapatinib] (partner 2 µM)
Procedure, shortened: (§1)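 Lung cancer cell lines, seeded in 1536-well plates, were treated the following day by pin tool with a single drug or with five library-drug doses (not always all listed) in √10 steps on top of a fixed anchor-drug dose. Cells were fixed and nuclei stained in one step after 5 days, and nuclei were counted. Relative viability is the nuclei count for treated wells divided by that for vehicle wells, reported as medians of duplicate plates.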

AZ505 + Phenformin = compound: C1CCC(CC1)N(CCNCCC2=C3C(=C(C=C2)O)NC(=O)CO3)C(=O)CCNCCC4=CC(=C(C=C4)Cl)Cl [AZ505] + N=C(N)NC(=N)NCCc1ccccc1 [Phenformin] (partner 250 µM)
Procedure, shortened: as §1

AZ505 + Vorinostat = compound: C1CCC(CC1)N(CCNCCC2=C3C(=C(C=C2)O)NC(=O)CO3)C(=O)CCNCCC4=CC(=C(C=C4)Cl)Cl [AZ505] + O=C(CCCCCCC(=O)Nc1ccccc1)NO [Vorinostat] (partner 1 µM)
Procedure, shortened: as §1

Dactolisib + Vorinostat = compound: Cn1c(=O)n(-c2ccc(C(C)(C)C#N)cc2)c2c3cc(-c4cnc5ccccc5c4)ccc3ncc21 [Dactolisib] + O=C(CCCCCCC(=O)Nc1ccccc1)NO [Vorinostat] (partner 1 µM)
Procedure, shortened: as §1

Cell Line	relative viability (Dactolisib + Lapatinib; first compound 0.002 µM)	relative viability (Dactolisib + Lapatinib; first compound 0.006325 µM)	relative viability (Dactolisib + Lapatinib; first compound 0.02 µM)	relative viability (Dactolisib + Lapatinib; first compound 0.06325 µM)	relative viability (Dactolisib + Lapatinib; first compound 0.2 µM)	relative viability (AZ505 + Phenformin; first compound 0.08 µM)	relative viability (AZ505 + Phenformin; first compound 0.253 µM)	relative viability (AZ505 + Phenformin; first compound 0.8 µM)	relative viability (AZ505 + Phenformin; first compound 2.53 µM)	relative viability (AZ505 + Phenformin; first compound 8 µM)	relative viability (AZ505 + Vorinostat; first compound 0.08 µM)	relative viability (AZ505 + Vorinostat; first compound 0.253 µM)	relative viability (AZ505 + Vorinostat; first compound 0.8 µM)	relative viability (AZ505 + Vorinostat; first compound 2.53 µM)	relative viability (AZ505 + Vorinostat; first compound 8 µM)	relative viability (Dactolisib + Vorinostat; first compound 0.002 µM)	relative viability (Dactolisib + Vorinostat; first compound 0.006325 µM)	relative viability (Dactolisib + Vorinostat; first compound 0.02 µM)	relative viability (Dactolisib + Vorinostat; first compound 0.06325 µM)	relative viability (Dactolisib + Vorinostat; first compound 0.2 µM)
NCI-H1755	1.07	1.03	1.06	0.852	0.73	0.615	0.592	0.663	0.639	0.688	0.782	0.859	0.788	0.743	0.813	0.758	0.77	0.71	0.619	0.477
HCC-78	0.769	0.753	0.612	0.47	0.493	0.531	0.611	0.707	0.731	0.728			0.444	0.597	0.508	0.33	0.431	0.415	0.367	0.303
IA-LM	0.769	0.671	0.771	0.156	0.106						0.878		0.933		1.17	1	0.903	0.817	0.426	0.267
NCI-H322M	0.612	0.583	0.616	0.527	0.508	0.75	0.756	0.718	0.728	0.826	0.824		0.888	0.837	0.882	0.941	0.862	0.734	0.599	0.609
NCI-H3122	1.07	1.02	1.03	1.08	0.795	0.369	0.353	0.37	0.357	0.414	0.807	1.02	1.03	0.992	1.01	1.03	0.854	1.09	1.04	0.671
SK-LU-1	0.857	0.782	0.728	0.509	0.27	0.353	0.345	0.33	0.394	0.379	0.488	0.463	0.513	0.548	0.588	0.766	0.697	0.671	0.448	0.321
COR-L23	1.39	0.864	0.765	0.299	0.295	0.446	0.463	0.383	0.442	0.441	0.415	0.312	0.364	0.407	0.377	0.367	0.363	0.277	0.157	0.161
NCI-H2087	1.21	1.16	1.23	0.855	0.563	0.389	0.35	0.395	0.396	0.471	0.596	0.903	0.592	0.691	0.913	0.731	0.458	0.501	0.176	0.339
LC-2-ad	1.01		1.06	0.728	0.437	0.561	0.538	0.572	0.64	0.579	0.657	0.712	0.689	0.708	0.772	0.857	0.699	0.749	0.524	0.496
NCI-H1915	0.986	0.956	0.97	0.964	0.693	0.339	0.38	0.345	0.375	0.354	0.469	0.66	0.508	0.472	0.495	0.556	0.487	0.531	0.402	0.453
NCI-H1792	1.05	0.943	0.859	0.792	0.293	0.302		0.31	0.417	0.263										
ChaGo-K-1						0.486	0.521	0.5	0.514	0.458	0.695	0.758	0.816	0.682	0.775	0.724	0.821	0.719	0.623	0.757
NCI-H2342						0.573	0.559	0.733	0.697	0.677	0.799	0.844	0.84	0.866	0.83	0.656	0.832	0.698	0.75	0.568
NCI-H1299	0.998	0.974	0.98	0.893	0.661															
SW 900						0.618	0.522	0.588	0.695	0.647	0.536	0.303	0.43	0.675	0.678	0.478	0.443	0.434	0.216	0.24
NCI-H1648												0.43	0.418	0.526	0.573	0.506	0.421	0.654	0.435	0.203
NCI-H522						0.526	0.521	0.61	0.732	0.626	0.688	0.909	0.927	0.874	0.818	0.861	0.833	0.79	0.822	0.657
A549	1.07	0.769	0.674	0.224	0.145	0.15	0.19	0.145	0.113	0.166										
NCI-H1563	0.939	0.892	0.816	0.72	0.582	0.626	0.646	0.696	0.664	0.666										
LCLC-103H						0.321	0.292	0.318	0.381	0.378	0.682	0.689	0.694	0.695	0.735	0.82	0.863	0.719	0.443	0.412
NCI-H441						0.742	0.814	0.905	0.907	0.786	0.786	0.881	0.735	0.782	0.876	0.841	0.675	0.802	0.276	0.34
